System: human neonatal foreskin keratinocytes
Assay: Keratinocyte growth by cell counting after seven days
Type: cell-based
Conditions: 168 h

Compound	inhibition at 0.5 µM (read-out: inhibition of cell growth) [%]	inhibition at 0.1 µM (read-out: inhibition of growth of keratinocytes) [%]
O=c1[nH]cc(F)c(=O)[nH]1 [5-fluorouracil]	30	–
CN(Cc1cnc2nc(N)nc(N)c2n1)c1ccc(C(=O)N[C@@H](CCC(=O)O)C(=O)O)cc1 [methotrexate]	–	32

Source: patent US5326764A, “Method for the treatment of hyperproliferative disorders” (Yale University, priority 1993, dated 1994)
